The substances below were run on 53BP1 TTD (assay: Histone peptide microarray, 53BP1 TTD). Settings: 53BP1 TTD hits, average signal per peptide.
Format: binding
How it was run: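 Binding of protein or antibody to arrayed histone peptides read by AlexaFluor 647 fluorescence, with anti-GST primary (1:2,000) and labelled secondary (1:5,000) for GST-fused domain. Hybridisations in HEPES pH 7.5 buffer with 100 mM NaCl, 0.5% BSA and 0.1% NP-40; triple PBS-Tween washes between steps.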

Substance	Avg Signal
AR(Me)TK(Me2)QTARKSTGGKAPRKQL-K(Biot)-NH2 [H3.1R2me1K4me2]	0.4867
ARTKQTARK(Me)STGGKAPRKQL-K(Biot)-NH2 [Peptide H3.1K9me1]	0.2555
ARTK(Ac)QTARK(Me)STGGK(Ac)APRK(Ac)QL-K(Biot)-NH2 [H3.1K4acK9me1K14acK18ac]	0.1278
ARTK(Ac)QTARKSTGGK(Ac)APRK(Ac)QL-K(Biot)-NH2 [H3.1K4acK14acK18ac]	0.1071
AR(Me2a)pTK(Me3)QTARKSTGGKAPRKQL-K(Biot)-NH2 [H3.1R2me2aT3pK4me3]	0.03111
ACitTK(Me2)QTARKSTGGKAPRKQL-K(Biot)-NH2 [H3.1Cit2K4me2]	0.6324
Ac-pSGR(Me2a)GK(Ac)QGGKARAKAKTR-Peg-Biot [H2AS1pR3me2aK5ac]	0.1102
ARTK(Me2)QTARK(Ac)STGGKAPRK(Ac)QL-K(Biot)-NH2 [H3.1K4me2K9acK18ac]	0.5101
Ac-SGRGK(Ac)GGKGLGK(Ac)GGAKRHRKVLR-Peg-Biot [Peptide H4K5acK12ac]	0.08013
Ac-SGRGKGGKGLGKGGAK(Ac)RHRKVLR-Peg-Biot [Peptide H4K16ac]	0.07097
Ac-GKGGAKRHRK(Me2)VLRDNIQ-Peg-Biot [Peptide H4K20me2]	1
ARTK(Me2)QTARK(Ac)STGGK(Ac)APRK(Ac)QL-K(Biot)-NH2 [H3.1K4me2K9acK14acK18ac]	0.5398
ARTKQTARK(Ac)STGGK(Ac)APRK(Ac)QL-K(Biot)-NH2 [H3.1K9acK14acK18ac]	0.1031
AR(Me2a)TK(Me2)QTARKSTGGKAPRKQL-K(Biot)-NH2 [H3.1R2me2aK4me2]	0.2614
ARTK(Me2)QTARKSTGGKAPRKQL-K(Biot)-NH2 [Peptide H3.1K4me2]	0.3009
AR(Me2s)TK(Me2)QTARKSTGGKAPRKQL-K(Biot)-NH2 [H3.1R2me2sK4me2]	0.2755
ARTK(Me)QTARK(Ac)STGGKAPRK(Ac)QL-K(Biot)-NH2 [H3.1K4me1K9acK18ac]	0.06582
ARTK(Me)QTARK(Ac)STGGK(Ac)APRK(Ac)QL-K(Biot)-NH2 [H3.1K4me1K9acK14acK18ac]	0.194

The substances below were run on Abcam #ab8895, anti-H3K4me1 (assay: Histone peptide microarray, Abcam ab8895). Settings: Abcam ab8895 (anti-H3K4me1) hits, average signal per peptide.
Format: binding

Substance	Avg Signal
AR(Me)TK(Me2)QTARKSTGGKAPRKQL-K(Biot)-NH2 [H3.1R2me1K4me2]	0.2976
ARTKQTARK(Me)STGGKAPRKQL-K(Biot)-NH2 [Peptide H3.1K9me1]	0.4772
ARTK(Ac)QTARK(Me)STGGK(Ac)APRK(Ac)QL-K(Biot)-NH2 [H3.1K4acK9me1K14acK18ac]	0.5059
ARTK(Ac)QTARKSTGGK(Ac)APRK(Ac)QL-K(Biot)-NH2 [H3.1K4acK14acK18ac]	0.001503
AR(Me2a)pTK(Me3)QTARKSTGGKAPRKQL-K(Biot)-NH2 [H3.1R2me2aT3pK4me3]	0.001405
ACitTK(Me2)QTARKSTGGKAPRKQL-K(Biot)-NH2 [H3.1Cit2K4me2]	0.2048
Ac-pSGR(Me2a)GK(Ac)QGGKARAKAKTR-Peg-Biot [H2AS1pR3me2aK5ac]	0.08644
ARTK(Me2)QTARK(Ac)STGGKAPRK(Ac)QL-K(Biot)-NH2 [H3.1K4me2K9acK18ac]	0.4062
Ac-SGRGK(Ac)GGKGLGK(Ac)GGAKRHRKVLR-Peg-Biot [Peptide H4K5acK12ac]	0.0343
Ac-SGRGKGGKGLGKGGAK(Ac)RHRKVLR-Peg-Biot [Peptide H4K16ac]	0.0007834
Ac-GKGGAKRHRK(Me2)VLRDNIQ-Peg-Biot [Peptide H4K20me2]	0.06608
ARTK(Me2)QTARK(Ac)STGGK(Ac)APRK(Ac)QL-K(Biot)-NH2 [H3.1K4me2K9acK14acK18ac]	0.4999
ARTKQTARK(Ac)STGGK(Ac)APRK(Ac)QL-K(Biot)-NH2 [H3.1K9acK14acK18ac]	0.2691
AR(Me2a)TK(Me2)QTARKSTGGKAPRKQL-K(Biot)-NH2 [H3.1R2me2aK4me2]	0.2655
ARTK(Me2)QTARKSTGGKAPRKQL-K(Biot)-NH2 [Peptide H3.1K4me2]	0.3093
AR(Me2s)TK(Me2)QTARKSTGGKAPRKQL-K(Biot)-NH2 [H3.1R2me2sK4me2]	0.2778
ARTK(Me)QTARK(Ac)STGGKAPRK(Ac)QL-K(Biot)-NH2 [H3.1K4me1K9acK18ac]	0.7729
ARTK(Me)QTARK(Ac)STGGK(Ac)APRK(Ac)QL-K(Biot)-NH2 [H3.1K4me1K9acK14acK18ac]	0.9702

Each substance was assayed against T1, MPP8 chromo (Homo sapiens, UniProt Q99549) (assay: Histone peptide microarray, MPP8 chromo). Settings: normalized histone peptide array signal, hits; hybridization with 1 M MPP8 chromo (so in the source); two subarrays.
T1 construct: 50-118; made in house; host or cells: E. coli BL21
T1 sequence (Q99549 50-118): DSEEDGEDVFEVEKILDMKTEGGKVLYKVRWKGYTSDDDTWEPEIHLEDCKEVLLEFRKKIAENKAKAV
Format: binding
Protocol: (§1) Peptide microarrays were fabricated using an Aushon 2470 microarrayer and used as described ([Cornett et al., 2017]) with the following modifications. Protein and antibody hybridization steps were performed in buffer containing 25 mM HEPES pH 7.5, 100 mM NaCl, 0.5% BSA (w/v), and 0.1% NP-40. Slides were washed 3 × 5 min in PBS supplemented with 0.1% Tween-20 between each hybridization step. Antibodies used were primary anti-GST (Sigma #7781, 1:2,000 dilution) and an AlexaFluor 647-labeled secondary antibody (Life Technologies A-21245, 1:5,000 dilution). […] Full lists of peptides queried by array analysis are in Supplementary Table S2.

Substance	Avg Signal
ARTKQTARK(Me)STGGKAPRKQL-K(Biot)-NH2 [Peptide H3.1K9me1]	0.4905
ARTK(Ac)QTARK(Me)STGGK(Ac)APRK(Ac)QL-K(Biot)-NH2 [H3.1K4acK9me1K14acK18ac]	0.07749

These substances were tested on ABClonal #A2355, anti-H3K4me1 (assay: Histone peptide microarray, ABclonal A2355). Settings: Abclonal A2355 (anti-H3K4me1) hits.
Format: binding
Protocol: as §1

Substance	Avg Signal
AR(Me)TK(Me2)QTARKSTGGKAPRKQL-K(Biot)-NH2 [H3.1R2me1K4me2]	0.4048
ARTK(Ac)QTARKSTGGK(Ac)APRK(Ac)QL-K(Biot)-NH2 [H3.1K4acK14acK18ac]	0.005007
AR(Me2a)pTK(Me3)QTARKSTGGKAPRKQL-K(Biot)-NH2 [H3.1R2me2aT3pK4me3]	0.002084
ACitTK(Me2)QTARKSTGGKAPRKQL-K(Biot)-NH2 [H3.1Cit2K4me2]	0.3053
Ac-pSGR(Me2a)GK(Ac)QGGKARAKAKTR-Peg-Biot [H2AS1pR3me2aK5ac]	0.05587
ARTK(Me2)QTARK(Ac)STGGKAPRK(Ac)QL-K(Biot)-NH2 [H3.1K4me2K9acK18ac]	0.4042
Ac-SGRGK(Ac)GGKGLGK(Ac)GGAKRHRKVLR-Peg-Biot [Peptide H4K5acK12ac]	0.01286
Ac-SGRGKGGKGLGKGGAK(Ac)RHRKVLR-Peg-Biot [Peptide H4K16ac]	0.00197
Ac-GKGGAKRHRK(Me2)VLRDNIQ-Peg-Biot [Peptide H4K20me2]	0.04168
ARTK(Me2)QTARK(Ac)STGGK(Ac)APRK(Ac)QL-K(Biot)-NH2 [H3.1K4me2K9acK14acK18ac]	0.4093
ARTKQTARK(Ac)STGGK(Ac)APRK(Ac)QL-K(Biot)-NH2 [H3.1K9acK14acK18ac]	0.01044
AR(Me2a)TK(Me2)QTARKSTGGKAPRKQL-K(Biot)-NH2 [H3.1R2me2aK4me2]	0.325
ARTK(Me2)QTARKSTGGKAPRKQL-K(Biot)-NH2 [Peptide H3.1K4me2]	0.3078
AR(Me2s)TK(Me2)QTARKSTGGKAPRKQL-K(Biot)-NH2 [H3.1R2me2sK4me2]	0.3527
ARTK(Me)QTARK(Ac)STGGKAPRK(Ac)QL-K(Biot)-NH2 [H3.1K4me1K9acK18ac]	0.6625
ARTK(Me)QTARK(Ac)STGGK(Ac)APRK(Ac)QL-K(Biot)-NH2 [H3.1K4me1K9acK14acK18ac]	0.8066

Each substance was assayed on CST 9733 (anti-H3K27me3) (assay: Histone peptide microarray, CST 9733). Settings: histone peptide array signal normalized to the highest peptide average per subarray, hits; CST 9733 LOT:14 dilution 1:5,000.
Format: binding
Protocol: as §1

Substance	Avg Signal
AR(Me)TK(Me2)QTARKSTGGKAPRKQL-K(Biot)-NH2 [H3.1R2me1K4me2]	0.0008431
ACitTK(Me2)QTARKSTGGKAPRKQL-K(Biot)-NH2 [H3.1Cit2K4me2]	0.0001108
Ac-pSGR(Me2a)GK(Ac)QGGKARAKAKTR-Peg-Biot [H2AS1pR3me2aK5ac]	0.0004026
Ac-GKGGAKRHRK(Me2)VLRDNIQ-Peg-Biot [Peptide H4K20me2]	0.000354
AR(Me2s)TK(Me2)QTARKSTGGKAPRKQL-K(Biot)-NH2 [H3.1R2me2sK4me2]	0.003211

Each substance was assayed on Active Motif #39161, anti-H3K9me3 (assay: Histone peptide microarray, Active Motif 39161). Settings: Active Motif 39161 (anti-H3K9me3) hits.
Format: binding

Substance	Avg Signal
AR(Me)TK(Me2)QTARKSTGGKAPRKQL-K(Biot)-NH2 [H3.1R2me1K4me2]	0.0007938
ARTKQTARK(Me)STGGKAPRKQL-K(Biot)-NH2 [Peptide H3.1K9me1]	0.000221
ACitTK(Me2)QTARKSTGGKAPRKQL-K(Biot)-NH2 [H3.1Cit2K4me2]	2.176e-5
Ac-pSGR(Me2a)GK(Ac)QGGKARAKAKTR-Peg-Biot [H2AS1pR3me2aK5ac]	0.0003455
ARTK(Me2)QTARK(Ac)STGGKAPRK(Ac)QL-K(Biot)-NH2 [H3.1K4me2K9acK18ac]	0.009454
Ac-SGRGK(Ac)GGKGLGK(Ac)GGAKRHRKVLR-Peg-Biot [Peptide H4K5acK12ac]	0.02456
Ac-GKGGAKRHRK(Me2)VLRDNIQ-Peg-Biot [Peptide H4K20me2]	0.01321
ARTKQTARK(Ac)STGGK(Ac)APRK(Ac)QL-K(Biot)-NH2 [H3.1K9acK14acK18ac]	0.001438
AR(Me2a)TK(Me2)QTARKSTGGKAPRKQL-K(Biot)-NH2 [H3.1R2me2aK4me2]	0.0008405
ARTK(Me2)QTARKSTGGKAPRKQL-K(Biot)-NH2 [Peptide H3.1K4me2]	0.001961
ARTK(Me)QTARK(Ac)STGGKAPRK(Ac)QL-K(Biot)-NH2 [H3.1K4me1K9acK18ac]	0.0008903
ARTK(Me)QTARK(Ac)STGGK(Ac)APRK(Ac)QL-K(Biot)-NH2 [H3.1K4me1K9acK14acK18ac]	0.005174

Each substance was assayed on Millipore #07-449, anti-H3K27me3 (assay: Histone peptide microarray, Millipore 07-449). Settings: Millipore 07-449 (anti-H3K27me3) hits, average signal per peptide.
Format: binding

Substance	Avg Signal
ARTKQTARK(Me)STGGKAPRKQL-K(Biot)-NH2 [Peptide H3.1K9me1]	0.001651
ARTK(Ac)QTARK(Me)STGGK(Ac)APRK(Ac)QL-K(Biot)-NH2 [H3.1K4acK9me1K14acK18ac]	0.004673
ARTK(Ac)QTARKSTGGK(Ac)APRK(Ac)QL-K(Biot)-NH2 [H3.1K4acK14acK18ac]	0.004978
AR(Me2a)pTK(Me3)QTARKSTGGKAPRKQL-K(Biot)-NH2 [H3.1R2me2aT3pK4me3]	0.007597
ACitTK(Me2)QTARKSTGGKAPRKQL-K(Biot)-NH2 [H3.1Cit2K4me2]	0.002853
Ac-SGRGK(Ac)GGKGLGK(Ac)GGAKRHRKVLR-Peg-Biot [Peptide H4K5acK12ac]	0.01271
Ac-SGRGKGGKGLGKGGAK(Ac)RHRKVLR-Peg-Biot [Peptide H4K16ac]	0.001899
ARTK(Me2)QTARK(Ac)STGGK(Ac)APRK(Ac)QL-K(Biot)-NH2 [H3.1K4me2K9acK14acK18ac]	0.02042
AR(Me2a)TK(Me2)QTARKSTGGKAPRKQL-K(Biot)-NH2 [H3.1R2me2aK4me2]	0.008316
